Experimental data reported in article PMC5242521 (PLoS ONE, 2017).
Read-outs that look alike come from different tables or passages of the source.

Key:
[1] = molecular target: T1, OATP2B1 (Homo sapiens, UniProt O94956); test: OATP2B1 activity: E3S accumulation in HEK-OATP2B1 cells; conditions: for effect on OATP2B1 activity: pyrethroid 100 μM
T1 sequence (O94956 1-709): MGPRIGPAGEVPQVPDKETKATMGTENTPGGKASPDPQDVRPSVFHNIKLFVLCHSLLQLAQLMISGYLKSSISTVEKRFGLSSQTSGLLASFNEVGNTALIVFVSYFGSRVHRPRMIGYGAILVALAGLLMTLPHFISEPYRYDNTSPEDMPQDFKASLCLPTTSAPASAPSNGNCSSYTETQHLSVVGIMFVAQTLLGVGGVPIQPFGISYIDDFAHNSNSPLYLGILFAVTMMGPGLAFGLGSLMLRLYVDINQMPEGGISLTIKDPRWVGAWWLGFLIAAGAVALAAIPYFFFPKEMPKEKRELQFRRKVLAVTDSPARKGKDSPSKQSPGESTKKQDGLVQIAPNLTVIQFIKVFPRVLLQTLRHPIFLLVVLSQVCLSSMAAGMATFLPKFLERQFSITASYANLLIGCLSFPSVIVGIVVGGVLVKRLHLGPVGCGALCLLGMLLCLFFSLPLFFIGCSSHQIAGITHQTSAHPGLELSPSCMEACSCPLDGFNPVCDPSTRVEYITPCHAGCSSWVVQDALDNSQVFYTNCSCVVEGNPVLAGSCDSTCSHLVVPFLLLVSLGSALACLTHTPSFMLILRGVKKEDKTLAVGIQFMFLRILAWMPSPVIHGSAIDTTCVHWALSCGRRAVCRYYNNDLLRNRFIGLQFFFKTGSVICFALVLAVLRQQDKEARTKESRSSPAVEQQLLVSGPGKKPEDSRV
Method: (§1) The effects of pyrethroids on activity of ABC and SLC transporters were determined through measuring cellular accumulation or retention of fluorescent or radiolabeled reference substrates for transporters, in the presence or absence of reference inhibitors, as previously described. The nature of cells and reference substrates and inhibitors used for transport assays are summarized in S3 Table.
(§2) The nature of substrates and reference inhibitors and the incubation times with substrates, that varied according to the transporter, were selected in agreement with previous studies and are indicated in S3 Table. The total incubation volume with substrates was 200 μL/well. […] An aliquot of cell lysate (5 μL) was then taken for determining cellular protein content by the Bradford method.
(§3) Intracellular concentrations of reference substrates were initially expressed as fluorescence arbitrary units (for fluorescent dye substrates) or as moles (for radiolabeled substrates) and normalized to cellular protein content, determined by the Bradford method. They were finally used for calculating percentage of transporter activity, according to the following equations [41, 45]: %ABCtransporter activity=([Substrateref inh]-[Substratepyrethroid])×100/([Substrateref inh]-[Substratecontrol]) (1) %SLC transporter activity=([Substratepyrethroid]-[Substratref inh])×100/([Substratecontrol]-[Substrateref inh]) (2) with [Substratepyrethroid] = cellular concentration of reference substrate in the presence of pyrethroid, [Substrateref inh] = cellular concentration of reference substrate in the presence of reference inhibitor and [Substratecontrol] = cellular concentration of reference substrate in control cells not exposed to pyrethroid or reference inhibitor.
(§4) The initial tested concentration of pyrethroids was 100 μM. […] Such concentrations were calculated using GraphPad Prism software (GraphPad Software, La Jolla, CA), through nonlinear regression based on the four parameter logistic function using the following equations: […]

[2] = molecular target: T2, OAT1 (Homo sapiens, UniProt Q4U2R8); test: OAT1 activity: fluorescein accumulation in HEK-OAT1 cells; assay type: cell-based
T2 construct: host or cells: HEK293
T2 sequence (Q4U2R8 1-563): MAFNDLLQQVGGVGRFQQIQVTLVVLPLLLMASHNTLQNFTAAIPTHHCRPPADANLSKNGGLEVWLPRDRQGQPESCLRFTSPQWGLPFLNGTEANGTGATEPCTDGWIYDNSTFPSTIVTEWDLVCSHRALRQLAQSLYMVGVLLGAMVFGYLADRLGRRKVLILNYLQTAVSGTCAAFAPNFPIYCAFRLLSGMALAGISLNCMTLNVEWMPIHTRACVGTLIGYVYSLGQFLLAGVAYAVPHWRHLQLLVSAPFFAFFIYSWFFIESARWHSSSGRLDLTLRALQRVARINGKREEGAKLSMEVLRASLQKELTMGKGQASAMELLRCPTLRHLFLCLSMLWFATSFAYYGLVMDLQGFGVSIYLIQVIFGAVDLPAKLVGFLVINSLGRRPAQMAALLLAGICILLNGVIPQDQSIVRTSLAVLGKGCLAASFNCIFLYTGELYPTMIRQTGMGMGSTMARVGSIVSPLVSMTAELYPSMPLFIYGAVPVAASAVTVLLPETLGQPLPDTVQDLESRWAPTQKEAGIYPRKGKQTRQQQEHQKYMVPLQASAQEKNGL
Method: The effects of pyrethroids on activity of ABC and SLC transporters were determined through measuring cellular accumulation or retention of fluorescent or radiolabeled reference substrates for transporters, in the presence or absence of reference inhibitors, as previously described [41].
The total incubation volume with substrates was 200 μL/well. […] An aliquot of cell lysate (5 μL) was then taken for determining cellular protein content by the Bradford method [44].
Intracellular concentrations of reference substrates were initially expressed as fluorescence arbitrary units (for fluorescent dye substrates) or as moles (for radiolabeled substrates) and normalized to cellular protein content, determined by the Bradford method [44]. They were finally used for calculating percentage of transporter activity, according to the following equations [41, 45]: %ABCtransporter activity=([Substrateref inh]-[Substratepyrethroid])×100/([Substrateref inh]-[Substratecontrol]) (1) %SLC transporter activity=([Substratepyrethroid]-[Substratref inh])×100/([Substratecontrol]-[Substrateref inh]) (2) with [Substratepyrethroid] = cellular concentration of reference substrate in the presence of pyrethroid, [Substrateref inh] = cellular concentration of reference substrate in the presence of reference inhibitor and [Substratecontrol] = cellular concentration of reference substrate in control cells not exposed to pyrethroid or reference inhibitor.

[3] = molecular target: T3, OCT1 (Homo sapiens, UniProt O15245); test: OCT1 activity: DAPI accumulation in HEK-OCT1 cells; conditions: for effect on OCT1 activity: pyrethroid 100 μM; for effect on OCT1 activity / IC50: DAPI; for IC50: IC50 for OCT1 inhibition, HEK-OCT1 cells; for inhibition at 100 μM: human, pH 7.4
T3 sequence (O15245 1-554): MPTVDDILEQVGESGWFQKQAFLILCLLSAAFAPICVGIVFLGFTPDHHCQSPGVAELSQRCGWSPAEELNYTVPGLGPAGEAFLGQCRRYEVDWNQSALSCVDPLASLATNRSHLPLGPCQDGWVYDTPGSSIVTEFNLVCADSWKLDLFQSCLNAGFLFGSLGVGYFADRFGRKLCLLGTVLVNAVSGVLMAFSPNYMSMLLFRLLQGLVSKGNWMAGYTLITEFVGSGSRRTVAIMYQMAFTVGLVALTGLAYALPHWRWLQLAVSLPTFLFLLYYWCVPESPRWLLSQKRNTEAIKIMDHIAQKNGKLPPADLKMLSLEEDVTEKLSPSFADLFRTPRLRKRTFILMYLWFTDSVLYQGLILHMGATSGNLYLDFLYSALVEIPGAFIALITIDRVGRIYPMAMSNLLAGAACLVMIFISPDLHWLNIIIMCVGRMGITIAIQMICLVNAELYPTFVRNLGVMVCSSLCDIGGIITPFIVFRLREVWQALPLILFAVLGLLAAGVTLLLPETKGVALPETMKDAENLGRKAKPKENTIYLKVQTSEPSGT
Method: as §1, §2, §3, §4

SMILES | effect on OATP2B1 activity [1] | effect on OAT1 activity ([2]; pyrethroid up to 100 μM) | effect on OCT1 activity [3] | EC50 [1] [µM] | effect on OAT1 activity ([2]; pyrethroid up to 100 μM, listed as Allethrin) | IC50 [3] [µM] | inhibition at 100 μM [3] [%] | effect on OAT1 activity [2]
C#CCN1CC(=O)N(COC(=O)[C@@H]2C(C=C(C)C)C2(C)C)C1=O (mixture of isomers) [imiprothrin] | cis-stimulated | failed to alter | markedly inhibited |  |  |  |  | 
C=CCC1=C(C)C(OC(=O)C2C(C=C(C)C)C2(C)C)CC1=O (stereo not shown) [allethrin] | cis-stimulated | failed to alter |  | 37.8 | No effect (up to 100 μM) | 2.6 | 87.9 | 
C#CCC1=C(C)C(OC(=O)C2C(C=C(C)C)C2(C)C)CC1=O (stereo not shown) [prallethrin] | cis-stimulated | failed to alter | markedly inhibited |  |  |  |  | 
CC(C)=CC1C(C(=O)OCN2C(=O)C3=C(CCCC3)C2=O)C1(C)C (stereo not shown) [tetramethrin] |  |  |  | 10.1 |  | 4.9 | 73.8 | No effect (up to 100 μM)
